The test system of this experiment is ATDC5 cells. Put plainly: Chondrogenesis activity assay in ATDC5 cells (collagen type II induction, immunofluorescence). The conditions noted are these: Mus musculus; for EC50: collagen type II induction in ATDC5 cells, concentration reaching 50% of maximum induction; for Emax: maximum percent induction of collagen type II relative to internal reference compound at 10 μM, ATDC5 cells. It counts as cell-based, mouse. Put shortly:
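Collagen type II was stained in fixed, permeabilized cells with an Alexa Fluor 488 secondary and measured by high-content fluorescence imaging. ATDC5 cells had 4 days at 37 °C in insulin-supplemented differentiation medium with compound, typically 40 nM–10 μM, 0.1% DMSO. DMSO wells and a 10 μM internal reference compound were used for normalization.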

`CCOc1ccc(-c2cc(Cl)cc3c2[nH]c2c(C)nccc23)cc1` [Example 192, 6-Chloro-8-(4-ethoxy-phenyl)-1-methyl-9H-pyrido[3,4-b]indole] yielded an EC50 of 640 nM and an Emax of over 80%.

`COc1ccc(-c2cc(Cl)cc3c2[nH]c2c(C)nccc23)c(OC)c1` [Example 193, 6-Chloro-8-(2,4-dimethoxy-phenyl)-1-methyl-9H-pyrido[3,4-b]indole] yielded an EC50 of over 10000 nM and a maximal response (Emax) of 20 to 50%.

As for `Cc1nccc2c1[nH]c1c(-c3ccc4c(c3)OC(C)C4)cc(Cl)cc12` (centres unmarked) [Example 196, 6-Chloro-1-methyl-8-(2-methyl-2,3-dihydro-benzofuran-6-yl)-9H-pyrido[3,4-b]indole], the EC50 was found to be 800 nM and the Emax was in the range of 50 to 80%.

Take `Cc1nccc2c1[nH]c1c(-c3ccc(OC4CCOC4)cc3)cc(Cl)cc12` (centres unmarked) [Example 197, 6-Chloro-1-methyl-8-[4-(tetrahydro-furan-3-yloxy)-phenyl]-9H-pyrido[3,4-b]indole]: the EC50 came out at 630 nM and the maximal response (Emax) is over 80%.

On to `Cc1cc(-c2cc(Cl)cc3c2[nH]c2c(C)nccc23)ccc1OC1CCOC1` (centres unmarked) [Example 198, 6-Chloro-1-methyl-8-[3-methyl-4-(tetrahydrofuran-3-yloxy)-phenyl]-9H-pyrido[3,4-b]indole], for which the concentration giving a half-maximal response (EC50) stood at 1800 nM and the maximal response (Emax) was in the range of 20 to 50%.

The compound `COCCn1c2cnccc2c2cc(Cl)cc(-c3ccc(OC)cc3)c21` [Example 201, 6-Chloro-9-(2-methoxy-ethyl)-8-(4-methoxy-phenyl)-9H-pyrido[3,4-b]indole] yielded a concentration giving a half-maximal response (EC50) of 600 nM and an Emax of over 80%.

Compound `Cc1nccc2c1[nH]c1c(-c3ccc(OCc4ccccn4)cc3)cc(Cl)cc12` [Example 202, 6-Chloro-1-methyl-8-[4-(pyridin-2-ylmethoxy)-phenyl]-9H-pyrido[3,4-b]indole] registered an EC50 of 640 nM and an Emax of over 80%.

`CCOC(=O)c1ccc2[nH]c(-c3cc(Cl)cc4c3[nH]c3c(C)nccc34)cc2c1` [Example 203, 2-(6-Chloro-1-methyl-9H-pyrido[3,4-b]indol-8-yl)-1H-indole-5-carboxylic acid ethyl ester]: the EC50 was over 10000 nM and the Emax was under 20%.

Take `Cc1nccc2c1[nH]c1c(-c3ccc(CC(=O)N4CCC(N5CCCC5)CC4)cc3)cc(Cl)cc12` [Example 204, 2-[4-(6-Chloro-1-methyl-9H-pyrido[3,4-b]indol-8-yl)-phenyl]-1-(4-pyrrolidin-1-yl-piperidin-1-yl)-ethanone]: the EC50 worked out at 190 nM and the maximal response (Emax) was 50 to 80%.

In the case of `Cc1nccc2c1[nH]c1c(-c3ccc(Oc4ccccc4)cc3)cc(Cl)cc12` [Example 205, 6-Chloro-1-methyl-8-(4-phenoxy-phenyl)-9H-pyrido[3,4-b]indole], it took 3300 nM to reach a half-maximal effect (EC50) and the Emax was over 80%.

`CCn1c2c(-c3cnn(Cc4ccccc4)c3)cc(Cl)cc2c2ccnc(C)c21` [Example 207, 8-(1-Benzyl-1H-pyrazol-4-yl)-6-chloro-9-ethyl-1-methyl-9H-pyrido[3,4-b]indole] gave an EC50 of 1600 nM and an Emax of over 80%.

The compound `CCn1c2c(-c3cnn(Cc4ccccc4)c3)cc(Br)cc2c2ccnc(C)c21` [Example 208, 8-(1-Benzyl-1H-pyrazol-4-yl)-6-bromo-9-ethyl-1-methyl-9H-pyrido[3,4-b]indole] yielded a concentration giving a half-maximal response (EC50) of 1900 nM and an Emax of over 80%.

In turn, `CCc1nc(C)cc2c3cc(Br)cc(-c4cnn(C)c4)c3n(CC)c12` [Example 210, 6-Bromo-1,9-diethyl-3-methyl-8-(1-methyl-1H-pyrazol-4-yl)-9H-pyrido[3,4-b]indole] yielded an EC50 of over 3300 nM and a maximal response (Emax) of under 20%.

The compound `CCc1cc2c([nH]c3c(-c4ccc(OC)cc4)cc(Br)cc32)c(C)n1` [Example 211, 6-Bromo-3-ethyl-8-(4-methoxy-phenyl)-1-methyl-9H-pyrido[3,4-b]indole] came in with an EC50 of over 3300 nM and a maximum response (Emax) of under 20%.

On to `Cc1nccc2c1[nH]c1c(-c3ccnc(N)c3)cc(Cl)cc12` [Example 215, 4-(6-Chloro-1-methyl-9H-pyrido[3,4-b]indol-8-yl)-pyridin-2-ylamine], for which the concentration giving a half-maximal response (EC50) is 230 nM and the maximal effect (Emax) was over 80%.

With `CCn1c2c(-c3ccnc(N4CCN(C)CC4)c3)cc(Cl)cc2c2ccnc(C)c21` [Example 219, 6-Chloro-9-ethyl-1-methyl-8-[2-(4-methyl-piperazin-1-yl)-pyridin-4-yl]-9H-pyrido[3,4-b]indole], the EC50 was over 3300 nM and the maximum response (Emax) was under 20%.

`CCn1c2c(-c3cccc(C(N)=O)c3)cc(Cl)cc2c2ccnc(C)c21` [Example 220, 3-(6-Chloro-9-ethyl-1-methyl-9H-pyrido[3,4-b]indol-8-yl)-benzamide] had an EC50 of over 10000 nM and an Emax of 20 to 50%.

As to `COc1cc(-c2cc(Cl)cc3c2[nH]c2c(C)nccc23)ccc1OCc1ccccn1` [Example 221, 6-Chloro-8-[3-methoxy-4-(pyridin-2-ylmethoxy)-phenyl]-1-methyl-9H-pyrido[3,4-b]indole], the half-maximal effective concentration (EC50) is over 3300 nM and the maximum response (Emax) lay within 20 to 50%.

On to `COc1cc(-c2cc(Cl)cc3c2[nH]c2c(C)nccc23)ccc1OCc1ccccc1` [Example 222, 8-(4-Benzyloxy-3-methoxy-phenyl)-6-chloro-1-methyl-9H-pyrido[3,4-b]indole], for which the concentration giving a half-maximal response (EC50) is over 10000 nM and the Emax was under 20%.

For `Cc1nccc2c1[nH]c1c(-c3ccc(CN4CCOCC4)cc3)cc(Cl)cc12` [Example 224, 6-Chloro-1-methyl-8-(4-morpholin-4-ylmethyl-phenyl)-9H-pyrido[3,4-b]indole], the 50% effective concentration (EC50) was found to be 310 nM and the maximal response (Emax) is over 80%.

Turning to `Cc1nccc2c1[nH]c1c(-c3ccc(OC4CCCC4)cc3)cc(Cl)cc12` [Example 225, 6-Chloro-8-(4-cyclopentyloxy-phenyl)-1-methyl-9H-pyrido[3,4-b]indole], it took 1700 nM to reach a half-maximal effect (EC50) and the Emax is over 80%.

Compound `Cc1nccc2c1[nH]c1c(-c3ccc(OCc4cccc(F)n4)cc3)cc(Cl)cc12` [Example 226, 6-Chloro-8-[4-(6-fluoro-pyridin-2-ylmethoxy)-phenyl]-1-methyl-9H-pyrido[3,4-b]indole] gave a concentration giving a half-maximal response (EC50) of 190 nM and a maximal effect (Emax) of 50 to 80%.

Compound `Cc1nccc2c1[nH]c1c(-c3ccnn3C)cc(Cl)cc12` [Example 227, 6-Chloro-1-methyl-8-(2-methyl-2H-pyrazol-3-yl)-9H-pyrido[3,4-b]indole] registered an EC50 of 330 nM and an Emax of over 80%.

As for `Cc1nccc2c1[nH]c1c(-c3ccc(OCC(O)CN4CCCCC4)cc3)cc(Cl)cc12` (centres unmarked) [Example 229, 1-[4-(6-Chloro-1-methyl-9H-pyrido[3,4-b]indol-8-yl)-phenoxy]-3-piperidin-1-yl-propan-2-ol], the EC50 came out at 280 nM and the Emax is 50 to 80%.

The compound `Cc1nccc2c1[nH]c1c(-c3ccc(OCCc4ccccc4)cc3)cc(Cl)cc12` [Example 231, 6-Chloro-1-methyl-8-(4-phenethyloxy-phenyl)-9H-pyrido[3,4-b]indole] registered an EC50 of over 10000 nM and a maximal effect (Emax) of 20 to 50%.

`Cc1nccc2c1[nH]c1c(-c3ccc4[nH]ncc4c3)cc(Cl)cc12` [Example 232, 6-Chloro-8-(1H-indazol-5-yl)-1-methyl-9H-pyrido[3,4-b]indole]: it took 330 nM to reach a half-maximal effect (EC50) and the maximal response (Emax) was over 80%.

Regarding `CCn1c2c(-c3ccn(CCn4cccn4)n3)cc(Cl)cc2c2ccnc(C)c21` [Example 233, 6-Chloro-9-ethyl-1-methyl-8-[1-(2-pyrazol-1-yl-ethyl)-1H-pyrazol-3-yl]-9H-pyrido[3,4-b]indole], the EC50 was over 10000 nM and the maximal effect (Emax) lay within 20 to 50%.

On to `CCn1c2c(-c3cc[nH]n3)cc(Cl)cc2c2ccnc(C)c21` [Example 234, 6-Chloro-9-ethyl-1-methyl-8-(1H-pyrazol-3-yl)-9H-pyrido[3,4-b]indole], for which a half-maximal effect (EC50) was put at 5800 nM and the Emax lay in the range of 50 to 80%.

Turning to `Cc1nccc2c1[nH]c1c(-c3cnc(-n4cccn4)nc3)cc(Cl)cc12` [Example 237, 6-Chloro-1-methyl-8-(2-pyrazol-1-yl-pyrimidin-5-yl)-9H-pyrido[3,4-b]indole], the EC50 was 500 nM and the Emax was over 80%.

For the compound `CCn1c2c(-c3ccc(C(O)c4ccccc4)cc3)cc(Cl)cc2c2ccnc(C)c21` (centres unmarked) [Example 238, [4-(6-Chloro-9-ethyl-1-methyl-9H-pyrido[3,4-b]indol-8-yl)-phenyl]-phenyl-methanol], a half-maximal effect (EC50) was put at 1400 nM and the Emax is over 80%.

As for `CCn1c2c(-c3cn[nH]c3)cc(Cl)cc2c2ccnc(C)c21` [Example 239, 6-Chloro-9-ethyl-1-methyl-8-(1H-pyrazol-4-yl)-9H-pyrido[3,4-b]indole], the EC50 was 250 nM and the Emax is 50 to 80%.

`COc1ccc(-c2cc(Cl)cc3c4ccnc(C)c4n(C)c23)nc1N` [Example 240, 6-(6-Chloro-1,9-dimethyl-9H-pyrido[3,4-b]indol-8-yl)-3-methoxy-pyridin-2-ylamine] had an EC50 of 490 nM and an Emax of 50 to 80%.

In the case of `Cc1nccc2c1[nH]c1c(-c3cnn(Cc4ccccn4)c3)cc(Cl)cc12` [Example 242, 6-Chloro-1-methyl-8-(1-pyridin-2-ylmethyl-1H-pyrazol-4-yl)-9H-pyrido[3,4-b]indole], a half-maximal response (EC50) required 570 nM and the maximal effect (Emax) was over 80%.

Compound `Cc1nccc2c1[nH]c1c(-c3ccc([S+](C)[O-])cc3)cc(Cl)cc12` (centres unmarked) [Example 243, 6-Chloro-8-(4-methanesulfinyl-phenyl)-1-methyl-9H-pyrido[3,4-b]indole] yielded an EC50 of 660 nM and an Emax of over 80%.

By EC50 is commonly meant the concentration that produces a half-maximal response. A low value points to higher potency in that assay. Broadly, the Emax is the size of the effect at its maximum, as opposed to the concentration needed.

Values taken from US12275733B2, “Substituted pyrido[3,4-b]indoles for the treatment of cartilage disorders” (Sanofi, priority 2016, dated 2025).
